What was measured:
MCF‐7 cells = assay: CV viability of MCF‐7 exposed to 3 together with autophagy inhibitors; type: cell-based, human; details: MCF‐7, 3 together with CQ or 3‐MA (0.5 mM), 72 h, CV assay
Method: Colorimetric assays for cellular viability. […] Cells were then washed with tap water, dried in air, and the CV dye was dissolved in 33 % (w/v) acetic acid solution. […] The dye was then discarded, and the formed formazan (purple) was dissolved in DMSO. The absorbance was measured with an automated microplate reader at λmax 540 nm, with the reference λmax 670 nm. Untreated cells or cells treated only with BSA (control) were also measured, as reference for BSA‐free and BSA‐containing drug formulations, respectively. […] Cell viability is expressed as percentage (%) relative to control (untreated cultures).58 Experiments were run in three independent replicates. […] Non‐linear regression analyses of the obtained results was done using GraphPad Prism software to calculate IC50 values. page 17: Figure S15. […] MA, 0.5 mM) for 72 h, from CV assay. Data are expressed as indicated above for Figure S11. * indicates statistically significant (p < 0.05) values, with respect to the control, # with respect to cells treated with 3. S16 (1 picture or pasted object on this page, not shown here)

[1] = Ester hydrolysis in PBS/DMSO at pH 7.4 (time‐resolved UV‐vis); type: physicochemical; details: PBS/DMSO (1 vol%), 20 μM
Text: Following our recent investigations on the self‐assembly behavior of ruthenacarborane complexes in aqueous solutions at physiologic pH,9, 10 the behavior of free acid 3 and ester 4 in aqueous solution was studied via UV‐vis spectroscopy and Nanoparticle Tracking Analysis (NTA) in phosphate‐buffered saline (PBS)/DMSO mixtures (pH 7.4). UV‐vis spectroscopy is a useful tool to follow the ester hydrolysis over time, when a UV‐(vis)‐active chromophore is present (in the case of 4, the quinoline ring). Experiments were carried out at room temperature (23 and 25 °C, for UV‐vis and NTA, respectively), to simulate the conditions of the working solutions used for cell cultures, and at 37 °C (UV‐vis), to simulate the conditions of incubation of cells.
UV‐vis spectroscopy. Stock solutions of 3, 4 and 8‐hydroxyquinoline (8‐HQ) in distilled DMSO were freshly prepared before use ([3]=2.11 mM; [4]=6.56 mM; [8‐HQ]=25.76 mM). An aliquot of the DMSO stock solution of 3, 4 or 8‐HQ was added to 3 mL PBS solution, so that the final concentration was 20 μM. DMSO content was adjusted to 1 vol % (considering the amount of DMSO from the stock solutions) before addition of the ruthenacarborane, in all samples. Time‐resolved UV‐vis spectra of 4 were measured, over a period of 26 h at room temperature (23±1 °C) and at 37±0.3 °C to follow hydrolysis of the ester bond of 4 at physiologic pH (7.4). PBS/DMSO solutions of 3 and 8‐HQ were also measured, as references. All measurements were corrected by subtracting the blank (PBS+1 vol % DMSO). Experiments were run in duplicate.

LN229 cells [2] = assay: AO staining (acidic vesicles), LN229; type: cell-based, human; details: LN229, IC50 dose, 72 h, compared with cells treated with an IC50 dose of 3
Method: (§1) Flow cytometry. For gaining better insights into the mechanisms of action of the ruthenium complexes, MCF‐7 and LN229 cells incubated with an IC50 dose of 3 or 4, were analyzed via flow cytometry. Several staining protocols were carried out in parallel, in independent experiments: i) AnnV/PI for the detection of apoptotic cell death, ii) AO for the detection of acidic vacuoles, iii) ApoStat for checking caspase activation, iv) CFSE for detecting interference with cellular proliferation, and v) DAPI for the detection of morphological signs of apoptosis. Untreated cells or cells treated only with BSA (control) were also measured, as reference for BSA‐free and BSA‐containing drug formulations, respectively. […] Channels FL1 (green emission), FL2 (orange emission) and/or FL3 (dark red emission) were used for fluorescence detection, according to the specific staining agent. Sideward Scatter (SSC) for MCF‐7 cells treated with 4 or BSA−4 was also analyzed, with respect to the control, for detection of shifts of cell granularity. […]
(§2) Staining Protocols for Flow Cytometric Analysis. […] Finally, cells were washed in PBS, resuspended in PBS (or AnnV‐binding buffer for AnnV/PI), and analysed. […] Cells were then washed, trypsinised, dissolved in PBS and analysed by CyFlow® Space Partec using the PartecFloMax® software (Partec GmbH, Münster, Germany). […]

LN229 cells [3] = assay: CFSE staining, flow cytometry, LN229; type: cell-based, human; details: LN229, 40 μM, 72 h
Method: as §1, §2

Substance	cell viability on co‐treatment with an inhibitor of autophagy (MCF‐7 cells)	time after which hydrolysis is pronounced ([1]; pH 7.4, 23 °C)	time to complete hydrolysis of the ester bond ([1]; pH 7.4, 23 °C)	time to complete hydrolysis of the ester bond ([1]; pH 7.4, 37 °C)	number of acidic vesicles (AO staining) (LN229 cells [2])	cellular proliferation (CFSE staining) (LN229 cells [3])
closo‐ [Compound 3, closo‐ [3‐(η^6‐p‐Cymene)‐1‐(CH2COOH)‐3,1,2‐RuC2B9H10]]	restoration of cellular viability	–	–	–	–	–
closo ‐[3‐(η^6‐p‐Cymene)‐1‐(quinolin‐8‐yl‐acetate)‐3,1,2‐RuC2B9H10] [Compound 4]	–	5 h	23 h	2.5 h	significantly lower	strong inhibition of cellular proliferation

— article PMC6973020, “Quinoline‐Conjugated Ruthenacarboranes: Toward Hybrid Drugs with a Dual Mode of Action” (Chemmedchem, 2019)
